Values after ≈ are worked out from the molar mass of the structure shown.
Columns and labels:
Format in all cases: functional
[1] = Antioxidant activity assessed as H2O2 free radical scavenging activity at 20 ug/ml after 10 to 15 mins by spectrophotometric analysis
[2] = Antioxidant activity assessed as H2O2 free radical scavenging activity at 100 ug/ml after 10 to 15 mins by spectrophotometric analysis
[3] = Antioxidant activity assessed as DPPH free radical scavenging activity at 20 ug/ml after 15 mins by spectrophotometric method
[4] = system: Aspergillus niger; test: Antifungal activity against Aspergillus niger assessed as zone of inhibition at 25 ug/ml measured after 24 hrs by well diffusion method; details: read-out: IZ
[5] = Antioxidant activity assessed as DPPH free radical scavenging activity at 40 ug/ml after 15 mins by spectrophotometric method
[6] = Antioxidant activity assessed as H2O2 free radical scavenging activity by spectrophotometric analysis
[7] = Antioxidant activity assessed as DPPH free radical scavenging activity at 80 ug/ml after 15 mins by spectrophotometric method
[8] = system: Aspergillus niger; test: Antifungal activity against Aspergillus niger assessed as zone of inhibition at 100 ug/ml measured after 24 hrs by well diffusion method; details: read-out: IZ
[9] = system: Candida albicans; test: Antifungal activity against Candida albicans assessed as zone of inhibition at 50 ug/ml measured after 24 hrs by well diffusion method; details: read-out: IZ
[10] = system: Candida albicans; test: Antifungal activity against Candida albicans assessed as zone of inhibition at 100 ug/ml measured after 24 hrs by well diffusion method; details: read-out: IZ
[11] = system: Candida albicans; test: Antifungal activity against Candida albicans assessed as zone of inhibition at 25 ug/ml measured after 24 hrs by well diffusion method; details: read-out: IZ
[12] = system: Aspergillus flavus; test: Antifungal activity against Aspergillus flavus assessed as zone of inhibition at 50 ug/ml measured after 24 hrs by well diffusion method; details: read-out: IZ
[13] = Antioxidant activity assessed as DPPH free radical scavenging activity at 100 ug/ml after 15 mins by spectrophotometric method
[14] = system: Aspergillus niger; test: Antifungal activity against Aspergillus niger assessed as zone of inhibition at 50 ug/ml measured after 24 hrs by well diffusion method; details: read-out: IZ
[15] = Antioxidant activity assessed as H2O2 free radical scavenging activity at 60 ug/ml after 10 to 15 mins by spectrophotometric analysis
[16] = system: Aspergillus flavus; test: Antifungal activity against Aspergillus flavus assessed as zone of inhibition at 25 ug/ml measured after 24 hrs by well diffusion method; details: read-out: IZ
[17] = system: Candida albicans; test: Antifungal activity against Candida albicans after 24 hrs by well diffusion method
[18] = Antioxidant activity assessed as DPPH free radical scavenging activity measured after 15 mins by spectrophotometric method
[19] = system: Aspergillus flavus; test: Antifungal activity against Aspergillus flavus assessed as zone of inhibition at 100 ug/ml measured after 24 hrs by well diffusion method; details: read-out: IZ
[20] = Antioxidant activity assessed as DPPH free radical scavenging activity at 60 ug/ml after 15 mins by spectrophotometric method
[21] = Antioxidant activity assessed as H2O2 free radical scavenging activity at 40 ug/ml after 10 to 15 mins by spectrophotometric analysis
[22] = Antioxidant activity assessed as H2O2 free radical scavenging activity at 80 ug/ml after 10 to 15 mins by spectrophotometric analysis
[23] = system: Aspergillus flavus; test: Antifungal activity against Aspergillus flavus after 24 hrs by well diffusion method
[24] = system: Aspergillus niger; test: Antifungal activity against Aspergillus niger after 24 hrs by well diffusion method

Structure (SMILES) | inhibition [1] [%] | inhibition [2] [%] | inhibition [3] [%] | zone of inhibition at 25 µg/mL [4] [mm] | inhibition [5] [%] | IC50 [6] [µg/mL] | inhibition [7] [%] | zone of inhibition at 100 µg/mL [8] [mm] | zone of inhibition at 50 µg/mL [9] [mm] | zone of inhibition at 100 µg/mL [10] [mm] | zone of inhibition at 25 µg/mL [11] [mm] | zone of inhibition at 50 µg/mL [12] [mm] | inhibition [13] [%] | zone of inhibition at 50 µg/mL [14] [mm] | inhibition [15] [%] | zone of inhibition at 25 µg/mL [16] [mm] | MIC [17] [µg/mL] | IC50 [18] [µg/mL] | zone of inhibition at 100 µg/mL [19] [mm] | inhibition [20] [%] | other results
COC(=O)c1cc(-c2csc(N/N=C/c3ccc(Cl)cc3Cl)n2)ccc1OCc1ccccc1 | 58.9 | 75 | 19.2 | 6 | 37.2 | 57.873 (≈ 113 µM) | 45.5 | 6 | 10 | 13 | 12 | 6 | 56.1 | 6 | 66.3 | 6 | 6.25 (≈ 12.2 µM) | 88.844 (≈ 173 µM) | 14 | 41.9 | inhibition [21]: 63.5%; inhibition [22]: 71.8%
Clc1ccc(-c2csc(N/N=C/c3cccs3)n2)cc1 | 82.8 | 87.1 | 94.4 | 6 | 96 | 39.58 (≈ 124 µM) | 96.6 | 8 | 14 | 18 | 11 | 17 | 97 | 6 | 85.2 | 8 | 6.25 (≈ 19.5 µM) | 26.335 (≈ 82.3 µM) | 20 | 96.1 | MIC [23]: 12.5 µg/mL (≈ 39.1 µM); inhibition [21]: 83.2%; inhibition [22]: 86%
Fc1ccc(-c2csc(N/N=C/c3cccs3)n2)cc1 | 84.2 | 92.4 | 92.4 | 6 | 93.3 | 35.206 (≈ 116 µM) | 66.3 | 13 | 14 | 15 | 12 | 6 | 97 | 10 | 90.3 | 6 | 6.25 (≈ 20.6 µM) | 44.12 (≈ 145 µM) | 6 | 94.6 | MIC [24]: 25 µg/mL (≈ 82.4 µM); inhibition [21]: 87.5%; inhibition [22]: 91.9%
O=C(O)Cc1ccccc1Nc1c(Cl)cccc1Cl | – | – | 97.1 | – | – | – | – | – | – | – | – | – | – | – | – | – | – | – | – | – | –
C(=N\Nc1nc(-c2ccccc2)cs1)/c1cccs1 | 87.5 | 94 | 95.5 | 6 | 95.8 | 31.03 (≈ 109 µM) | 97.1 | 10 | 10 | 12 | 6 | 12 | 96.8 | 8 | 91 | 8 | 12.5 (≈ 43.8 µM) | 26.008 (≈ 91.1 µM) | 15 | 97.6 | MIC [24]: 25 µg/mL (≈ 87.6 µM); inhibition [21]: 90%; inhibition [22]: 92.4%
Fc1ccc(-c2csc(N/N=C/c3ccc(Cl)cc3Cl)n2)cc1 | 88.4 | 95.6 | 90.7 | 6 | 93.3 | 35.539 (≈ 97 µM) | 95.5 | 6 | 11 | 13 | 10 | 10 | 96 | 6 | 92.4 | 8 | 6.25 (≈ 17.1 µM) | 27.139 (≈ 74.1 µM) | 12 | 94.6 | MIC [23]: 12.5 µg/mL (≈ 34.1 µM); inhibition [21]: 90%; inhibition [22]: 94%
Cc1ccc(-c2csc(N/N=C/c3cccs3)n2)cc1 | 79.6 | 91 | 90.9 | 6 | 97 | 35.933 (≈ 120 µM) | 97.8 | 6 | 14 | 15 | 13 | 6 | 98.1 | 6 | 84.4 | 6 | 6.25 (≈ 20.9 µM) | 29.837 (≈ 99.6 µM) | 6 | 97.6 | inhibition [21]: 82.8%; inhibition [22]: 88.4%
Cc1ccc(-c2csc(N/N=C/c3ccc(Cl)cc3Cl)n2)cc1 | 76.2 | 85.3 | 86 | 6 | 86.2 | 40.004 (≈ 110 µM) | 90.7 | 6 | 6 | 8 | 6 | 10 | 95.1 | 6 | 83.2 | 6 | 25 (≈ 69 µM) | 30.791 (≈ 85 µM) | 16 | 93.3 | MIC [23]: 25 µg/mL (≈ 69 µM); inhibition [21]: 80.4%; inhibition [22]: 84.2%
COc1ccc(-c2csc(N/N=C/c3ccc(Cl)cc3Cl)n2)cc1 | 78.1 | 87.5 | 65.5 | 6 | 69.5 | 40.405 (≈ 107 µM) | 90.6 | 6 | 6 | 7 | 6 | 6 | 93.3 | 6 | 82.8 | 6 | 25 (≈ 66.1 µM) | 34.966 (≈ 92.4 µM) | 6 | 86.9 | inhibition [21]: 79.7%; inhibition [22]: 84.2%
OC(Cn1cncn1)(Cn1cncn1)c1ccc(F)cc1F [FLUCONAZOLE] | – | – | – | 14 | – | – | – | 25 | 22 | 28 | 15 | 18 | – | 20 | – | 15 | < 3.12 | – | 20 | – | MIC [23]: < 3.12 µg/mL; MIC [24]: < 3.12 µg/mL
COC(=O)c1cc(-c2csc(N/N=C/c3cccs3)n2)ccc1OCc1ccccc1 | 79.6 | 92.4 | 94.3 | 6 | 94.9 | 29.212 (≈ 65 µM) | 96 | 6 | 8 | 10 | 6 | 6 | 96.3 | 6 | 84.4 | 6 | 25 (≈ 55.6 µM) | 28.131 (≈ 62.6 µM) | 6 | 95.5 | inhibition [21]: 82.8%; inhibition [22]: 87.6%
O=C1O[C@H]([C@@H](O)CO)C(O)=C1O [ASCORBIC ACID] | 93.4 | 97 | 93.4 | – | 94.6 | 26.771 (≈ 152 µM) | 96 | – | – | – | – | – | 97 | – | 95.5 | – | – | 26.771 (≈ 152 µM) | – | 95.5 | inhibition [21]: 94.6%; inhibition [22]: 96%
